PubChem BioAssay (NCI)
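All cell lines were grown in 96-well plates and treated with compound for 48 hours. The concentration for full growth arrest is given as TGI.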

What was measured:
Assay in all cases: growth of human tumour cells (NCI), 48 h
OVCAR-5 ovarian = test system: OVCAR-5 ovarian
NCI-H522 lung = test system: NCI-H522 lung
NCI-H460 lung = test system: NCI-H460 lung
DLD-1 colon = test system: DLD-1 colon
SN12C renal = test system: SN12C renal
MALME-3M melanoma = test system: MALME-3M melanoma
COLO 205 colon = test system: COLO 205 colon
SNB-19 CNS = test system: SNB-19 CNS
SF-295 CNS = test system: SF-295 CNS
TK-10 renal = test system: TK-10 renal
SK-OV-3 ovarian = test system: SK-OV-3 ovarian
CCRF-CEM leukemia = test system: CCRF-CEM leukemia
M14 melanoma = test system: M14 melanoma
HT29 colon = test system: HT29 colon
CAKI-1 renal = test system: CAKI-1 renal
SNB-75 CNS = test system: SNB-75 CNS
MDA-MB-435 = test system: MDA-MB-435
MDA-N = test system: MDA-N
HS 578T breast = test system: HS 578T breast
DU-145 prostate = test system: DU-145 prostate

Row | SMILES | TGI (OVCAR-5 ovarian) [µM] | TGI (NCI-H522 lung) [µM] | TGI (NCI-H460 lung) [µM] | TGI (DLD-1 colon) [µM] | TGI (SN12C renal) [µM] | TGI (MALME-3M melanoma) [µM] | TGI (COLO 205 colon) [µM] | TGI (SNB-19 CNS) [µM] | TGI (SF-295 CNS) [µM] | TGI (TK-10 renal) [µM] | TGI (SK-OV-3 ovarian) [µM] | TGI (CCRF-CEM leukemia) [µM] | TGI (M14 melanoma) [µM] | TGI (HT29 colon) [µM] | TGI (CAKI-1 renal) [µM] | TGI (SNB-75 CNS) [µM] | TGI (MDA-MB-435) [µM] | TGI (MDA-N) [µM] | TGI (HS 578T breast) [µM] | TGI (DU-145 prostate) [µM]
1 | O=C(Cc1ccccc1)NN1C(=O)C(Cl)C1c1cccc([N+](=O)[O-])c1 (centres undefined) | > 100 | 3.64 | > 100 | > 100 | > 100 | > 100 | > 100 | > 100 | > 100 | > 100 | > 100 | 5.97 | > 100 | > 20 | > 63.8 |  |  |  |  | 
2 | Cc1ccc(C(=O)N2CCCCC2)cc1N=NN(C)C | > 100 | > 100 | > 100 | > 100 | > 100 | > 100 | > 100 | > 100 | > 100 | > 100 |  | > 100 | > 100 | > 100 | > 100 | > 100 |  |  |  | 
3 | O=C1C=CC(=O)c2cc(Sc3ccccc3)c(=O)c(Sc3ccccc3)cc21 |  | 25.4 | > 100 | > 100 | > 100 |  | > 100 | > 100 | > 100 | > 100 | > 100 | 60.9 | > 100 | > 100 | > 100 | > 100 |  |  |  | 
4 | O=P(CCOc1ccccc1OCCP(=O)(c1ccccc1)c1ccc2c(c1)OCCOCCOCCOCCO2)(c1ccccc1)c1ccc2c(c1)OCCOCCOCCOCCO2 (centres undefined) | > 100 | > 100 | > 100 | > 100 | > 100 | > 100 | > 100 | > 100 | > 100 | > 100 | > 100 | > 100 | > 100 | > 100 |  | > 100 |  |  |  | 
5 | CC1=NC=C(O)c2ccccc2O1 |  |  | > 100 | > 100 | > 100 | > 100 | > 100 | > 100 | > 100 | > 100 | > 100 | > 100 | > 100 | > 100 |  |  |  |  |  | 
6 | CN(C)CCN(C)C(=O)C1CCCN1C(=O)OCc1ccccc1 (centres undefined) | > 100 | 24 | > 100 | > 100 | > 100 | > 100 | > 100 | > 100 | > 100 | > 100 | > 100 | 48.7 | > 100 | > 100 |  | > 100 |  |  |  | 
7 | CCCCCC#COC1CC(C)CC[C@@H]1C(C)C (some centres undefined) | > 100 | 52.2 | 55.4 | > 100 | > 100 | > 100 | > 100 | > 100 | > 100 | > 100 | > 100 | 31.9 | > 100 | > 100 | > 100 | > 100 |  |  |  | 
8 | O=C(CCN1CCC(CCO)CC1)Nc1ccc2c(c1)C(=O)c1ccc(NC(=O)CCN3CCC(CCO)CC3)cc1C2=O | > 100 | 24 | 15.5 | 22.2 | > 100 | 28.6 | 64.6 | 68.8 | > 100 | > 100 | 46.3 | 42.5 |  | > 100 | > 100 | 64.2 |  |  |  | 
9 | CCCCCCCC(CC(=O)NC(CO)C(=O)NC(CO)CC(C)C)OC(=O)CC(CCCCCCC)OC(=O)CC(CCCCCCC)OC1OC(C)C(O)C(OC2OC(C)C(O)C(O)C2O)C1O (centres undefined) | 26 | 29.5 | 19.1 | 31.7 | 28.7 | 24 | 22.8 | 26.1 | 27.1 | 30.8 | 31.5 | 15 | 17.5 | 21.8 | 33.2 | 24.9 | 19.5 | 20.5 | 22.7 | 25.3
10 | COc1ccc2[nH]c3c4c(cc(-c5ccccc5)c3c2c1)C(=O)N(c1ccccc1)C4=O | > 100 | 61 | > 100 | > 100 | > 100 | 65 | > 100 | > 81.8 | 33.7 | > 100 | > 93.1 | 15.1 | > 95.4 | > 100 | > 77.7 | 37.2 |  |  |  | 
11 | CC(=O)Oc1ccc(Nn2c3ccccc3c3ccccc32)c(C)c1 | > 100 | 46.3 | > 100 | > 100 | > 100 | > 100 | > 100 | > 100 | 73.7 | > 100 | > 100 | > 100 | 74.3 |  |  |  |  |  |  | 
12 | Cc1cc(C)c(S(=O)(=O)N(CCCN)OCCON(CCCN)S(=O)(=O)c2c(C)cc(C)cc2C)c(C)c1 | 4.99 | 13.6 | 17 |  | > 100 | 3.8 | > 100 | 4.37 | 67 | 42.8 | 24.8 | > 24.9 | > 100 | 40.4 | > 71.4 | 12.6 | > 23.6 | 8.22 | 30.3 | > 100
13 | CN1C(C)(C)CC(=O)C(Br)C1(C)C (centres undefined) | > 100 | > 100 | > 100 |  | > 100 | > 100 | > 100 | > 100 | > 100 | > 100 | > 100 | > 100 | > 100 | > 100 | > 100 | > 100 | > 100 | > 100 | > 100 | > 100
14 | O=C(Cc1ccccc1)N/N=C(/c1nc2ccc([N+](=O)[O-])cc2[nH]c1=O)C(O)c1ccc(C(O)/C(=N/NC(=O)Cc2ccccc2)c2nc3ccc([N+](=O)[O-])cc3[nH]c2=O)cc1 (centres undefined) | > 100 | 94.6 |  | > 100 | > 100 | > 100 | > 100 | > 100 | > 100 | > 100 | > 100 | > 100 | > 100 | > 100 | > 100 | > 100 |  |  |  | 
15 | Nc1nc(Br)nc2ncn(C3CC(O)C(CO)O3)c12 (centres undefined) | > 100 | > 100 | > 100 |  | > 100 | > 100 | > 100 | > 100 | > 100 | > 100 | > 100 | > 100 | 33.4 | > 100 | > 100 | > 100 | > 100 | > 100 | > 100 | > 100
16 | CN(C)CC1CCCCCCCCCCCCC(CN(C)C)C1=O (centres undefined) | 30.6 |  | 27.6 | 29.6 | 29.4 | 29.4 | 27.6 | 31.6 | 29.6 | 27.9 | 32.3 |  | 25.9 | 18.5 | 26.3 | 24.6 |  |  |  | 
17 | O=[N+]([O-])c1ccc(CN=C2NNS(=O)(=O)c3ccccc32)cc1 | > 100 |  | > 100 | > 100 | > 100 | > 100 | > 100 | > 100 | > 100 |  |  | > 100 | > 100 | > 100 | > 100 |  |  |  |  | 
